Measurements: patent publication US5496947A, “Quinolone carboxylic acid derivatives” (Dong Wha Pharmaceutical Industrial Co., Ltd., priority 1994, dated 1996)
Where two headings read alike, the source gives them in different places.

Columns and labels:
[1] = tested on: Streptococcus pyrogens ATCC 19615; assay: MIC, 2-fold dilution method in micro-well plate, S. pyrogens; assay type: cell-based; conditions: S. pyrogenes ATCC19615, 37° C., read-out: Minimum Inhibitory Concentration
Description: (§1) The in vitro antibiotic activity of the present compound is measured using 2-fold dilution method with a micro-well plate and the bacteria are inoculated in about 10^5 cfu/ml after an overnight culture in a brain-heart infusion (BHI) broth at 37° C. The novel compounds of the present invention are converted to a hydrochloride salt form and diluted with a sterilized distilled water to make 10 mg/ml aqueous solution. After the mother liquor wherein the compound is diluted to the two-fold concentration has been obtained in the form of an aqueous solution, the respective 0.1 ml of diluted liquor is transferred to a well and is inoculated with 0.1 ml of the culture fluid to make about (10^5 -10^6)/2 cfu/ml.
(§2) After cultivation at 37° C., the minimum inhibitory concentration (MIC) is measured and recorded in Table I-V.
(§3) Table I-V show the minimum inhibitory concentrations (MIC).
Streptococcus pyrogens ATCC 19615

[2] = tested on: Escherichia coli ATCC 25922; assay: MIC, 2-fold dilution method in micro-well plate, E. coli; assay type: cell-based
Description: as §1, §2, §3
Escherichia coli ATCC 25922

[3] = tested on: Pseudomonas aeruginosa ATCC 27853; assay: MIC, 2-fold dilution method in micro-well plate, P. aeruginosa; assay type: cell-based
Description: as §1, §2, §3
Pseudomonas aeruginosa ATCC 27853

[4] = tested on: Streptococcus faecalis ATCC 29212; assay: MIC, 2-fold dilution method in micro-well plate, S. faecalis ATCC 29212; assay type: cell-based; conditions: Enterococcus faecalis; S. faecalis ATCC29212, 37° C.; read-out: Minimum Inhibitory Concentration
Description: as §1, §2, §3
Streptococcus faecalis ATCC 29212

[5] = tested on: Haemophilus influenza ATCC 35056; assay: MIC, 2-fold dilution method in micro-well plate, H. influenzae; assay type: cell-based; conditions: H. influenzae ATCC35056, 37° C.; read-out: Minimum Inhibitory Concentration
Description: as §1, §2, §3
Haemophilus influenza ATCC 35056

[6] = tested on: Salmonella typhimurium ATCC 14028; assay: MIC, 2-fold dilution method in micro-well plate, S. typhimurium; assay type: cell-based; conditions: Salmonella enterica, read-out: Minimum Inhibitory Concentration
Description: as §1, §2, §3
Salmonella typhimurium ATCC 14028

[7] = tested on: Enterobacter aerogenes ATCC 13048; assay: MIC, 2-fold dilution method in micro-well plate, E. aerogenes; assay type: cell-based; conditions: Klebsiella aerogenes
Description: as §1, §2, §3
Enterobacter aerogenes ATCC 13048

[8] = tested on: Streptococcus pneumoniae ATCC 6303; assay: MIC, 2-fold dilution method in micro-well plate, S. pneumoniae; assay type: cell-based; conditions: S. pneuinoniae ATCC6303, 37° C., read-out: Minimum Inhibitory Concentration
Description: as §1, §2, §3
Streptococcus pneumoniae ATCC 6303

[9] = tested on: Citrobacter freundii ATCC 8090; assay: MIC, 2-fold dilution method in micro-well plate, C. freundii; assay type: cell-based
Description: as §1, §2, §3
Citrobacter freundii ATCC 8090

[10] = tested on: Shigella sonnei ATCC 25931; assay: MIC, 2-fold dilution method in micro-well plate, S. sonnei; assay type: cell-based; conditions: S. sonnei ATCC25931, 37° C., read-out: Minimum Inhibitory Concentration
Description: as §1, §2, §3
Shigella sonnei ATCC 25931

[11] = tested on: Serratia marcescens ATCC 8100; assay: MIC, 2-fold dilution method in micro-well plate, S. marcescens; assay type: cell-based; conditions: ATCC8100, read-out: Minimum Inhibitory Concentration
Description: as §1, §2, §3
Serratia marcescens ATCC 8100

[12] = tested on: Shigella flexneri ATCC 12022; assay: MIC, 2-fold dilution method in micro-well plate, S. flexneri; assay type: cell-based; conditions: S. flexneri ATCC12022, 37° C., read-out: Minimum Inhibitory Concentration
Description: as §1, §2, §3
Shigella flexneri ATCC 12022

Enterobacter cloacae = assay: MIC, 2-fold dilution method in micro-well plate, E. cloacae; assay type: cell-based; conditions: read-out: Minimum Inhibitory Concentration
Description: as §1, §2, §3
Enterobacter cloacae ATCC 23355

[13] = tested on: Klebsiella pneumoniae ATCC 13883; assay: MIC, 2-fold dilution method in micro-well plate, K. pneumoniae; assay type: cell-based
Description: as §1, §2, §3
Klebsiella pneumoniae ATCC 13883

[14] = tested on: Streptococcus faecalis ATCC 19433; assay: MIC, 2-fold dilution method in micro-well plate, S. faecalis ATCC 19433; assay type: cell-based; conditions: Enterococcus faecalis; S. faecalis ATCC19433, 37° C.; read-out: Minimum Inhibitory Concentration
Description: as §1, §2, §3
Streptococcus faecalis ATCC 19433

[15] = tested on: Proteus vulgaris ATCC 13315; assay: MIC, 2-fold dilution method in micro-well plate, P. vulgaris; assay type: cell-based
Description: as §1, §2, §3
Proteus vulgaris ATCC 13315

[16] = tested on: Acinetobacter calcoaceticus; assay: MIC, 2-fold dilution method in micro-well plate, A. calcoaceticus; assay type: cell-based
Description: as §1, §2
Table I-V show the minimum inhibitory concentrations (MIC). […]

[17] = Pharmacokinetic properties in ICR mouse, oral and subcutaneous, Bio-Assay (Agar well method); assay type: in vivo; conditions: 40 mg/kg, average of four tests; for dose excreted: urine, read-out: Urine Recovery
Description: The pharmacokinetic properties are tested by orally administrating and subcutaneously injecting a test compound and a substance for control to a ICR Mouse with 22 g±10% weight, drawing blood after 10, 20, 30, 45, 60, 90, 120, 150, 180 and […] and analyzed by Bio-Assay (Agar well method).

[18] = ATCC25922, read-out: Minimum Inhibitory Concentration
[19] = P. aerugirnosa ATCC27853, 37° C., read-out: Minimum Inhibitory Concentration
[20] = ATCC13048, read-out: Minimum Inhibitory Concentration
[21] = ATCC8090, read-out: Minimum Inhibitory Concentration
[22] = ATCC13883, read-out: Minimum Inhibitory Concentration
[23] = ATCC13315, read-out: Minimum Inhibitory Concentration
[24] = E. coli ATCC25922, 37° C., read-out: Minimum Inhibitory Concentration
[25] = ATCC27853, read-out: Minimum Inhibitory Concentration
[26] = P. vulgaris ATCC13315, 37° C., read-out: Minimum Inhibitory Concentration
[27] = A. calcoaceticus ATCC8090 (as in tables), 37° C., read-out: Minimum Inhibitory Concentration

| Compound | MIC [1] [µg/mL] | MIC [2, 18] [µg/mL] | MIC [3, 19] [µg/mL] | MIC [4] [µg/mL] | MIC [5] [µg/mL] | MIC [6] [µg/mL] | MIC [7, 20] [µg/mL] | MIC [8] [µg/mL] | MIC [9, 21] [µg/mL] | MIC [10] [µg/mL] | MIC [11] [µg/mL] | MIC [12] [µg/mL] | MIC (Enterobacter cloacae) [µg/mL] | MIC [13, 22] [µg/mL] | MIC [14] [µg/mL] | MIC [15, 23] [µg/mL] | MIC [16, 21] [µg/mL] | other results |
| --- | --- | --- | --- | --- | --- | --- | --- | --- | --- | --- | --- | --- | --- | --- | --- | --- | --- | --- |
| CC1CN(c2cc3c(cc2F)c(=O)c(C(=O)O)cn3-c2ccncc2F)CCN1.Cl (stereo not shown) [Example 3, 1-(3-fluoro-4-pyridyl)-6-fluoro-7-(3-methyl-1-piperazinyl)-1,4-dihydro-4-oxoquinoline-3-carboxylic acid hydrochloride] | 10 | 0.625 | 0.625 | 5 | 1.25 | 0.625 | 1.25 | 5 | 1.25 | 0.625 | 0.625 | 2.5 | 0.625 | 0.625 | 2.5 | 0.625 | 0.625 | – |
| Cl.O=C(O)c1cn(-c2ccc(F)cn2)c2nc(N3CCNCC3)c(F)cc2c1=O [Example 12, 1-(5-fluoro-2-pyridyl)-6-fluoro-7-(1-piperazinyl)-1,4-dihydro-4-oxo-1,8-naphthyridine-3-carboxylic acid hydrochloride] | 5 | 0.313 | 1.25 | 5 | 1.25 | 1.25 | 0.625 | 5 | 1.25 | 0.313 | 1.25 | 0.625 | 0.625 | 0.625 | 5 | 0.625 | 0.625 | – |
| CC1CN(c2cc3c(cc2F)c(=O)c(C(=O)O)cn3-c2ccc(F)cn2)CC(C)N1.Cl (stereo not shown) [Example 20, 1-(5-fluoro-2-pyridyl)-6-fluoro-7-(3,5-dimethyl-1-piperazinyl)-1,4-dihydro-4-oxoquinoline-3-carboxylic acid hydrochloride] | 10 | 0.625 | 1.25 | 2.5 | 1.25 | 1.25 | 1.25 | 5 | 0.625 | 0.313 | 0.625 | 0.625 | 0.625 | 0.625 | 5 | 0.625 | 1.25 | – |
| Cl.N[C@H]1CCN(c2nc3c(cc2F)c(=O)c(C(=O)O)cn3-c2ccncc2F)C1 [Example 11, 1-(3-fluoro-4-pyridyl)-6-fluoro-7-[(3S)-3-amino-1-pyrrolidinyl]-1,4-dihydro-4-oxo-1,8-naphthyridine-3-carboxylic acid hydrochloride] | 2.5 | – | – | 0.625 | 0.156 | 0.156 | 0.156 | 1.25 | 0.156 | 0.01 | 0.156 | 0.156 | 0.156 | 0.156 | 0.625 | – | – | MIC [2, 24]: 0.078 µg/mL; MIC [3, 25]: 0.156 µg/mL; MIC [15, 26]: 0.313 µg/mL; MIC [16, 27]: 1.25 µg/mL |
| CN1CCN(c2nc3c(cc2F)c(=O)c(C(=O)O)cn3-c2ccncc2F)CC1.Cl [Example 8, 1-(3-fluoro-4-pyridyl)-6-fluoro-7-(4-methyl-1-piperazinyl)-1,4-dihydro-4-oxo-1,8-naphthyridine-3-carboxylic acid hydrochloride] | 10 | 0.313 | – | 5 | 0.625 | 0.313 | 0.625 | 5 | – | 0.625 | 0.625 | 0.313 | 0.625 | 0.625 | 5 | 0.313 | – | MIC [3, 25]: 0.625 µg/mL; MIC ([9]; C. freundii ATCC8090, 37° C., read-out: Minimum Inhibitory Concentration): 1.25 µg/mL; MIC [16, 27]: 1.25 µg/mL |
| Cl.NC1CCN(c2cc3c(cc2F)c(=O)c(C(=O)O)cn3-c2ccncc2F)C1 (stereo not shown) [Example 5, 1-(3-fluoro-4-pyridyl)-6-fluoro-7-(3-amino-1-pyrrolidinyl)-1,4-dihydro-4-oxoquinoline-3-carboxylic acid hydrochloride] | 5 | – | 0.313 | 2.5 | 0.313 | 0.313 | – | 2.5 | 0.313 | 0.078 | 0.313 | 0.625 | 0.313 | – | 2.5 | – | 0.313 | MIC [2, 24]: 0.156 µg/mL; MIC ([7]; E. aerogenes ATCC13048, 37° C., read-out: Minimum Inhibitory Concentration): 0.156 µg/mL; MIC ([13]; K. pneumoniae ATCC13883, 37° C., read-out: Minimum Inhibitory Concentration): 0.156 µg/mL; MIC [15, 26]: 0.078 µg/mL |
| CC1COc2c(N3CCN(C)CC3)c(F)cc3c(=O)c(C(=O)O)cn1c23 (stereo not shown) [Ofloxacin, reference compound] | – | – | – | – | – | – | – | – | – | – | – | – | – | – | – | – | – | AUC ([17]; blood, po, P.O): 12800 ng·h/mL; Cmax ([17]; blood, po, P.O): 9410 ng/mL; Tmax ([17]; blood, po, P.O): 45 min; bioavailability ([17]; blood, po, P.O): 89.8%; AUC ([17]; blood, sc, S.C): 14200 ng·h/mL; Cmax ([17]; blood, sc, S.C): 12900 ng/mL; Tmax ([17]; blood, sc, S.C): 25.2 min; half-life ([17]; blood, sc, S.C): 25.2 min; dose excreted ([17]; po, P.O): 32.2%; dose excreted ([17]; sc, S.C): 39.1% |
